The Kd is a measure of binding affinity in units of concentration. Read a high Kd as lower affinity.

Structures are written as SMILES.

Results on two compounds are retold here after paper PMC2857062 (The Journal of biological chemistry, 2010).

Assay [1] concerns the target Dock1 DHR-1 domain (422-619) (Homo sapiens, UniProt Q14185). Nature of the assay: ITC. In kind it is binding.
Assay [2] deals with Dock1 DHR-1 domain (422-619) (Homo sapiens, UniProt Q14185, D436Y). Kind of assay: ITC. In kind it is binding.
Sequence of Dock1 DHR-1 domain (422-619) (Homo sapiens, UniProt Q14185, D436Y) (Q14185 422-619 D436Y): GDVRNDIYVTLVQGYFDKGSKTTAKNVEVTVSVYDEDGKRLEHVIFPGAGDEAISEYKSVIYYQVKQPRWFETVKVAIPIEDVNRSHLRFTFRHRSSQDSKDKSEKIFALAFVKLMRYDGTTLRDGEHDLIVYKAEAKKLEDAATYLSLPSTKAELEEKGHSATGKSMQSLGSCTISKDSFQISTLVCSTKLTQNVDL

Sequence of Dock1 DHR-1 domain (422-619) (Homo sapiens, UniProt Q14185) (Q14185 422-619): as the sequence (Q14185 422-619 D436Y) above, with Y15D counted along it

Compound `O=P(O)(O)O[C@H]1[C@H](O)[C@@H](OP(=O)(O)O)[C@H](OP(=O)(O)O)[C@@H](OP(=O)(O)O)[C@H]1O` [Ins(1,3,4,5)P4] registered a Kd in assay [1] of 7.7 ± 3 µM.

For the compound `CCCCCCCC(=O)OC[C@H](COP(=O)(O)O[C@H]1[C@H](O)[C@@H](OP(=O)(O)O)[C@H](OP(=O)(O)O)[C@@H](OP(=O)(O)O)[C@H]1O)OC(=O)CCCCCCC` [di-C8-PtdIns(3,4,5)P3], in assay [2], the Kd came to 3.4 µM. This counts as single-digit micromolar.
